Columns and labels:
Format in all cases: cell-based, human
[1] = system: cells differentiated from iPS cell line MAP2 Neo #2; test: Flow cytometry of cells made with the No FGF8 protocol with drug selection (+G418) (Example 2); conditions: +G418, 7 days post-thaw
Procedure: (§1) On Day 19, cells were dissociated using Accutase (45 min) and were re-plated at 3.1×10^5 cells/cm^2 onto flasks pre-coated with poly-L-ornithine and laminin (PLO/laminin) in Maturation Medium containing 2.5 μM blebbistatin. Cells were fed with Maturation Medium on Days 20, 22 and 24. To compare unselected cells to those that had undergone drug selection, in some experiments a side-arm condition of cells were fed on Day 22 and 24 with Maturation Medium containing 100 μg/mL G418 to select against cells not expressing the neomycin resistance gene under the control of a pan-neuronal MAP2 promoter.
On Day 26, cells were dissociated using Accutase (45 min) and cryopreserved in CryoStor CS10 medium at 1.25×10^7 cells/mL using a controlled rate freezer.
In further studies the purity of mature midbrain DA neurons was assessed by flow cytometry of cells generated using a “no FGF8” protocol alone compared to cells obtained using a drug selection method. When the cells are cryopreserved on day 26 with no drug selection, they are 99% FoxA2^+, 40% TH^+, and 77% Map2^+. […] For comparison, cells made using the same protocol but with drug selection (+G418), the final purity at 7 days post-thaw was 96% FoxA2^+, 63% TH^+, and 98% Map2^+.

[2] = system: cells differentiated from iPS cell line MAP2 Neo #2; test: Flow cytometry of midbrain DA neuron differentiation with G418 drug selection (Example 1); conditions: day 38; 100 μg/mL G418 selection; same protocol without drug selection gave 39% neurons
Procedure: as §1, with “24,” for “19,”, “Day 25. On Day 27” for “Days 20, 22”, “Day 29,” for “24. To compare unselected cells to those that had undergone drug selection, in some experiments a side-arm condition of”, “fed” for “fed on Day 22 and 24”
On Day 31, cells were dissociated using Accutase (45 min) and were re-plated at 3.1×10^5 cells/cm^2 onto PLO/ laminin flasks in Maturation Medium containing 100 μg/mL G418 and 2.5 μM blebbistatin. On Day 32, Day 34 and Day 36, cells were fed with Maturation Medium. On Day 38, cells were dissociated using Accutase (45 min) and cryopreserved in CryoStor CS10 medium at 1.25×10^7 cells/mL using a controlled rate freezer.
The effect of drug selection on gene expression in cell populations was also analyzed. […] This iPS cell lines (MAP2 Neo #2 (01279.107.00402)) was generated using zinc finger nuclease-mediated homologous recombination at the AAVS1 safe harbor site, as detailed above. The midbrain DA neuron differentiation protocol performed without drug selection results in a population of cells that is 39% neurons (Map2^+/Nestin^−) on day 38. […]

MAP2 Neo #2 iPS cells = test: Midbrain specification during DA progenitor induction with a MEK inhibitor; conditions: 1 μM PD0325901 added from Day 2 of differentiation
Procedure: Day 1 medium was composed of DMEM/F12 with B27 Supplement and containing a cocktail of small molecule inhibitors and activators (“Induction Cocktail”): 200 nM LDN-193189, […] SB431542, 2 μM purmorphamine, 100 ng/mL Shh C25II and 1.25 μM CHIR 99021. […] On Day 3 and Day 4, the cells were fed with DMEM/F12 with B27 (−Vitamin A)+Induction Cocktail+1 μM PD0325901.

CN[C@@H]1[C@@H](O)[C@@H](O[C@@H]2[C@@H](O)[C@H](O[C@H]3O[C@H]([C@@H](C)O)[C@@H](O)[C@H](O)[C@H]3N)[C@@H](N)C[C@H]2N)OC[C@]1(C)O [G418]
TH+ cells, final purity ([1]; without selection 55%): 63%
Map2+ cells, final purity ([1]; without selection 90%): 98%
FoxA2+ cells, final purity ([1]; without selection 93%): 96%
neurons (Map2+/Nestin-) in the cell population [2]: 95%

O=C(NOC[C@H](O)CO)c1ccc(F)c(F)c1Nc1ccc(I)cc1F [PD0325901]
midbrain specification (MAP2 Neo #2 iPS cells): induces faster and more efficient midbrain specification

From patent publication US10828335B2, “Production of midbrain dopaminergic neurons and methods for the use thereof” (FUJIFILM Cellular Dynamics, Inc., priority 2014, dated 2020)
